# Test results: patent US9255263B2, “Antithrombotic compounds” (King's College London, priority 2009, dated 2016)
# Values joined by “and” are separate entries in the source; they are usually repeats but may differ in a detail not shown here. Equal entries are not always repeated. Where no end group is shown, it is not given here. The star is where a group is joined. Myristoyl = CCCCCCCCCCCCCC(=O)*
# Tests used:
# [1] = system: Human CD34-derived progenitor cells; assay: Human plasma recalcification (clotting) assay with prothrombotic cells; assay type: cell-based; conditions: for effect on cell-promoted fibrin clot formation: cells pre-incubated with agent and washed
# Description: Human plasma preparation: Human blood was drawn from volunteers with heparin and human plasma prepared by centrifugation, before storage at −80° C.
# Human plasma recalcification assay (based on Lin et al Transplantation, 86(5):702-9, 2008): Human CD34-derived progenitor cells were suspended in 50 μl Tris-buffered saline and mixed with 100 μl of normal human plasma (Sigma) in glass tubes (Corning, Corning, N.Y.). Ten (10) μl of 250 mM CaCl2 in Tris-buffered saline combined with 90 μl phospholipids (Diagnostic Reagents, Oxford, UK) were added, and the tube incubated at 37° C. in a water bath—the time for a fibrin clot to form was determined in triplicate, during which time the tubes were continuously agitated by tilting. In some assays, cells were incubated with 200 uL of Compound 1 (50 uM) for 30 min at 4° C. before washing twice and inclusion in the clotting assay.
# [2] = system: DA kidney graft in pre-sensitised Lewis recipients; assay type: in vivo, rat
# Source text: Rat used were inbred male DA (RT1^a) and Lewis (RT1^i) at the age of 7-8 weeks and a weight of 150-200 g. The model of hyperimmune rejection was based on renal allografts from MHC Class I disparate donors and recipients with modifications to enable life-sustaining renal transplantation. Prior to transplantation, Lewis recipients were pre-sensitised by sequential grafting of three 2×2 cm full thickness skin DA grafts placed to the recipient's dorsal back. The first two skin transplants were received biweekly, followed by a four week period during which alloantibody reached its peak (data not shown), followed by the placement of a third skin graft.
# Seven to ten days after the third skin graft, Lewis recipients received a DA kidney graft which had been perfused with different concentrations of Compound 1 (0.1-5 μM) and either flushed or not with Soltran solution (see above).
# For the recipient preparation, a midline laparotomy was performed followed by removal of the left kidney. Microaneurysm clips (Johnson & Johnson, UK) were used to clamp the renal vein and artery. The donor kidney was transplanted orthotopically in an end to end anastomosis of the renal vein, artery and ureter using 10-0 sutures (BEAR MEDIC Corp, Japan). The donor and the recipient preparations were taking place simultaneously thus eliminating any cold ischemia. At the end of warm ischemia time, which was 30 minutes, the clips were removed and blood flow was restored to the transplanted kidney. Finally, a second native nephrectomy was performed making the transplanted kidney life-sustaining.
# APT070 is a 23 kDa fragment of human complement receptor type 1(CR1) described in WO 98/0245. […] The inventors assessed the effects of these agents in the RATx model as a preliminary to combination studies with Compound 1. […]
# [3] = target: human thrombin (Homo sapiens, UniProt P00734); assay: GPBC assay: compound bound to guinea pig erythrocytes against exogenous human thrombin; assay type: cell-based; conditions: inhibitors 1 uM at cell-binding step, normalised for cell number
# Description: Method and results. Guinea Pig Blood Cells (GPBCs Harlan, UK) were extensively washed with Gelatin Veronal Buffer (GVB, Sigma G6514). A fixed volume of cell suspension (100 ul containing about 10^8 cells) was then diluted 1:1 with GVB before Compounds 1 or 2 were added; control HLL was used at the same final concentration. Cells were incubated for 10 min at ambient temperature with gentle agitation. Three washes with GVB were performed (each with at least 500 ul GVB) before discarding the supernatant and leaving cell pellet as dry as possible. Cell pellet was then resuspended with GVB and hThrombin (between 0.01 and 0.1 units) was added: reaction volume was 460 ul. Cells were incubated for 3 min at 37° C. in a waterbath and after incubation, gently pelleted by centrifugation. Supernatant (˜400 ul) was recovered and spun again to remove any residual cells. Supernatant (380 ul) was transferred to a spectrophotometer and 70 µl of GVB and 50 ul thrombin substrate (1 mM in GVB) added. The sample adsorbance was recorded at 405 nm for 20 min at 25° C.
# The cell-based thrombin inhibitory capacity of Compounds 1 and 2 were compared by normalising for cell number in the GPBC assay. […] Both values result from using inhibitors at 1 uM final concentration of the compounds at the cell-binding step.
# [4] = system: RBCs; assay: Internalisation by 2-colour FACS on RBCs; assay type: cell-based
# Description: To gain insight into internal versus external exposure of the compounds, cells treated with these materials were incubated with an antibody raised against hirudin (anti Hir-mAb) which cross-reacts with the HLL-1 peptide sequence. Compounds located on the outside of cells were detected by FACS using this antibody in combination with a secondary phycoerythrin (PE)-conjugated antibody, at different time points. This system enabled the ratios of externally presented compound (red PE plus green FAM fluorescence) and internalised compound (green fluorescence only) to be estimated.
# [5] = Solubility observed during preparation; assay type: physicochemical
# Description: N-myristoyl-GSSKSPSKKKKKKPGDC(S-2-thiopyridyl)-amide (containing SEQ ID NO. 4) (Smith R, Biochem. Soc. Transactions, 30: 1037-41, 2002) was prepared by solid phase synthesis. 0.1 ml of a solution of this conjugate (10 mg/ml) in DMSO was added to a solution of HLL-1 in PBS (4.8 mM, 0.2 ml). The mixture was held at 24° C. for 1 h and the concentration of 2-thiopyridine released calculated from the absorbance at 343 nm. […] After a further 30 min at 24° C., approximately 84% of the HLL peptide had reacted. The mixture was diluted to 2 ml with PBS (slight cloudiness was observed) and then concentrated using a Vivaspin 2 3 kDa cutoff PES membrane cartridge at 2500 rpm/4° C./90 min. […] Compound 3 has a theoretical molecular weight of 4403 daltons.
molecule,measurement,setting,value
"Conjugate of Anticoagulant Peptide HLL-1 with 1,2-distearoyl-sn-glycero-3-phosphoethanolamine-N-[2-thiopropionyl(polyethyleneglycol)-2000] (FPRPGGGGDGDFEEIPEEYLGGC; not fully specified) [Compound 1]","time for a fibrin clot to form, mean of three tubes","[1]; cells pre-incubated with Compound 1 (50 uM) 30 min at 4° C., washed twice, re-calcified human plasma",172 s
same,"time for a fibrin clot to form, single tube","[1]; cells pre-incubated with Compound 1 (50 uM) 30 min at 4° C., washed twice, re-calcified human plasma, listed as C.1",169 s and 172 s and 175 s
same,effect on cell-promoted fibrin clot formation,[1],inhibited this effect
same,survival after transplantation,"[2]; donor kidney perfused with 2 uM, flushed, controls did not survive longer than 48 h",5 to 6 days
same,BUN deterioration,"[2]; donor kidney perfused with 2 uM, flushed, versus control",deterioration was significantly slower
same,threshold concentration for bleeding,"[2]; rat, in vivo",around 10 nM
"CC[C@H](C)[C@H](NC(=O)[C@H](CCC(=O)O)NC(=O)[C@H](CCC(=O)O)NC(=O)[C@H](Cc1ccccc1)NC(=O)[C@H](CC(=O)O)NC(=O)CNC(=O)[C@H](CC(=O)O)NC(=O)CNC(=O)CNC(=O)CNC(=O)CNC(=O)[C@@H]1CCCN1C(=O)[C@H](CCCNC(=N)N)NC(=O)[C@@H]1CCCN1C(=O)[C@H](N)Cc1ccccc1)C(=O)N1CCC[C@H]1C(=O)N[C@@H](CCC(=O)O)C(=O)N[C@@H](CCC(=O)O)C(=O)N[C@@H](Cc1ccc(O)cc1)C(=O)N[C@@H](CC(C)C)C(=O)NCC(=O)NCC(=O)N[C@@H](CS)C(N)=O [HLL, reference compound]",effect on cell-promoted fibrin clot formation,[1],little inhibition of cell-mediated clotting
"Conjugate of Anticoagulant Peptide HLL-1 with N-(α,ε bis-myristoyl lysine) SSKSPSKKDDKKPGDC-acid ({Myristoyl-K(myristoyl)}-SSKSPSKKDDKKPGDC-OH; also: C-terminal Cys disulfide-linked to HLL-1 peptide) [Compound 2]",ratio Compound 2/Compound 1 for the specific cell inhibition capacity,[3]; 0.05 U of thrombin,2.1
same,ratio Compound 2/Compound 1 for the specific cell inhibition capacity,[3]; 0.1 U of thrombin,1.3
same,total labelled cells,[4],98%
same,externally detected percentage,[4]; after 1 h,around 65%
same,cells red and green (compound displayed on outer cell membrane),[4]; initially,82%
"Conjugate of Anticoagulant Peptide HLL-1 with N-myristoyl-GSSKSPSKKKKKKPGDC(S-2-thiopyridyl)-amide (Myristoyl-GSSKSPSKKKKKKPGDC-NH2; not fully specified (residue 17); also: Cys S-2-thiopyridyl (activated form), conjugated to HLL-1 via Cys) [Compound 3]",DMSO needed to maintain solubility,[5],> 50 % v/v
same,solubility in aqueous buffers,[5],only limited solubility in aqueous buffers
